Data published in US10647677B2, “Analogues of hydroxychloroquine (HCQ) without retinal toxicity” (Inoviem Scientific, priority 2015, dated 2020).
“Also recorded” adds a separate entry of the source. Read-outs that look alike come from different tables or passages of the source.

Tests used:
[1] = system: C57Bl/6 mice, pulmonary vasculitis induced by immune complexes; assay: Pulmonary vasculitis induced by immune complexes: histological analysis of lung sections; assay type: in vivo; settings: per os before induction; HCQ 10 mg/kg, CB137 10, 30 or 100 mg/kg (FIG. 6)
Experimental: Female C57Bl/6 strain mice from the Jackson Laboratory, 8-10 weeks old and weighing about 20 g, are used in all experiments. The mice are maintained at a temperature of 23° C.±1° C. with 12-hour light/dark cycle. Mice have access to water and food ad libitum and are housed at least one week before the beginning of any experiments.
A retro-orbital blood sampling was performed using capillaries containing heparin on mice anesthetized with isoflurane the day before the manipulation. The next day, the mice were anesthetized with a mixture of ketamine and xylasin (90 mg/kg and 125 mg/kg, respectively). The immune IgG complex is induced in the lungs by intratracheal instillation of 0.5 mg of anti-BSA rabbit antibody (MP Biomedicals, Strasbourg, France) and by the administration of 0.5 mg per mouse of BSA antigen in the caudal vein (Warner et al., 2001 and Warren et al., 1989). The specified treatment (PF-1355, CB137 or solvent alone) is administered enterally. The animals are euthanized 4 hours after intratracheal instillation. […]
The lung sections are examined under a light microscope (Axio LabA1 by Zeiss brand) to assess the intensity of the neutrophil influx and the level of hemorrhage, and to identify the structural alterations. A minimum of 10 fields at 400× magnification is analyzed per animal. […]

myeloperoxidase (MPO) = molecular target: T1, myeloperoxidase (MPO) (Homo sapiens, UniProt P05164); assay: Surface plasmon resonance (Biacore 3000) affinity on MPO; assay type: binding; settings: SPR at 25° C.
T1 construct: purchased
T1 sequence (P05164 49-745): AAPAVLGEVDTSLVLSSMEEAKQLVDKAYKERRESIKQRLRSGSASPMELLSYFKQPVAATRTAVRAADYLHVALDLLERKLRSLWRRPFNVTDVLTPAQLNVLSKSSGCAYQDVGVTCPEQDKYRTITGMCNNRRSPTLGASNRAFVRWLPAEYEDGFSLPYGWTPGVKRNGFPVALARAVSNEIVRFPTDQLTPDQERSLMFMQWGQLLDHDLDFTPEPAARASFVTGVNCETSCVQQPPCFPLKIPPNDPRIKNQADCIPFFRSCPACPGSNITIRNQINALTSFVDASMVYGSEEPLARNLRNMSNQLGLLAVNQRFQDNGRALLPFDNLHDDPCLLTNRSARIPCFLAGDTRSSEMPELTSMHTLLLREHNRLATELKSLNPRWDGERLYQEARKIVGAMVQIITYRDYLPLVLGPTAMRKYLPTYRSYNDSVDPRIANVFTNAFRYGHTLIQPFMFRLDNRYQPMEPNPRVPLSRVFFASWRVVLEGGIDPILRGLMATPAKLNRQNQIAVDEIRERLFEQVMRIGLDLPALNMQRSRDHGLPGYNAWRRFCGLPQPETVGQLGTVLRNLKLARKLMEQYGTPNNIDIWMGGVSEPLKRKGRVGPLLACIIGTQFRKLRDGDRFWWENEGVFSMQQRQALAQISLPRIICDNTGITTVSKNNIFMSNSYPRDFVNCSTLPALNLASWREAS
Experimental: (§1) Using the surface plasmon resonance technology (Biacore 3000), the interaction constants between HCQ analogues (HCQa) and myeloperoxidase (MPO) targets and αB-crystalline (αB-C) were measured at 25° C. according to 12 different series of experiments. First, HCQ analogues at five different concentrations (10^−6 to 10^−8 M) were injected at a rate of 10^−6 L/min for 250 s on the MPO and αB-C targets as well as on the ERK1 and ERK2 controls, followed by a dissociation phase of 150 s.
(§2) The kinetic parameters were measured using the BIAevaluation 4.1 software. The set of resonance unit values obtained with the controls were subtracted from those obtained with MPO and αB-C to compensate for non-specific bonds.
(§3) The differences in Kd values for the myeloperoxidase (MPO) and αB-crystalline (αB-C) enzymes in Tables 1 and 2 are due to the variability of commercial batches. Nevertheless, the difference between the Kd of the compounds HCQ and CB137 remains identical according to these two tests.
(§4) Analysis of the compounds in the form of sulphate salts according to the method described above: […]

αB-crystalline (αB-C) = molecular target: T2, αB-crystalline (αB-C) (Homo sapiens, UniProt P02511); assay: Surface plasmon resonance (Biacore 3000) affinity on αB-crystalline; assay type: binding; settings: SPR at 25° C., read-out: Kd (M) on crystallin
T2 construct: purchased
T2 sequence (P02511 1-175): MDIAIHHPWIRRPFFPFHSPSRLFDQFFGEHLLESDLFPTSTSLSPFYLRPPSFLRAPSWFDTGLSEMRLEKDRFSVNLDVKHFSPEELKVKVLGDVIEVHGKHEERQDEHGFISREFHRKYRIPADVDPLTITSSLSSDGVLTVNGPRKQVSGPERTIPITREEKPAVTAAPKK
Experimental: as §1, §2, §3, §4

[2] = Table 2, compounds in the form of sulphate salts

| SMILES | inhibition of pulmonary vasculitis / pulmonary inflammation induced by immune complexes (lung sections) [1] | Kd (myeloperoxidase (MPO); Table 1) [nM] | Kd (myeloperoxidase (MPO); [2]) [nM] | Kd (αB-crystalline (αB-C); Table 1) [M] | Kd (αB-crystalline (αB-C); [2]) [M] |
| --- | --- | --- | --- | --- | --- |
| CCN(CCO)CCCC(C)Nc1c(Cl)cnc2cc(Cl)ccc12 (stereo not shown) [CB137] | inhibiting pulmonary vasculitis; also recorded: limits pulmonary inflammation | 6.59 | 60 | 1.75e-07 | 3e-05 |
| CCN(CCO)CCCC(C)Nc1ccnc2cc(Cl)ccc12 (stereo not shown) [Commercial HCQ, hydroxychloroquine] | inhibiting pulmonary vasculitis | 710 | 4000 | 2.2e-08 | 1e-06 |
